Where two headings read alike, the source gives them in different places.
Key:
Type in all cases: cell-based
[1] = tested on: Pseudomonas aeruginosa (ATCC 15442); test: Microtiter test of biocidal efficacy and synergy (MIC/MBC, Kull K value), Example 1
Method: An 8X stock solution of DBDCB was prepared by dissolving about 3.2 grams (g) of 20% active DBDCB in about 4 ml of methanol and diluting the volume up to about 100 ml with deionized water. The DBDCB used in the examples was obtained from Calgon Corporation, Pittsburgh, PA, as Merguard® 1200. A Triclosan 4X stock solution was prepared by dissolving about 0.16g of about 99% active Triclosan in about 5 ml of methanol and diluting the volume up to about 100 ml with deionized water. The Triclosan was obtained from Ciba Geigy as Irgasan® DP 300.
Two microtiter plates were prepared for use in the example, each microtiter plate having 8 rows, A-H, and 12 columns, 1-12. The amount of each biocide in each well of the plates is depicted below.
The amount of biocide in each well of the second microtiter plate of each set was a follows: TABLE 2
(§1) The minimum inhibitory concentration (MIC) for each biocide combination against Ps. aeruginosa was determined. The MIC is the least amount of biocide needed to prevent growth in the well, with growth being defined as turbidity in the medium or a "pellet" of cells which came out of the medium and settled at the bottom of the well.
Additional plates were then subcultured from the MIC plates at 24 hours following biocide addition. Subculturing was done to determine the minimum biocidal concentration (MBC). […]

[2] = tested on: Pseudomonas aeruginosa (ATCC 15442); test: Microtiter test of biocidal efficacy and synergy (Kull K value), Example II, bacterium
Method: as §1
(§2) Additional plates were then subcultured from the MIC plates at 24 hours following biocide addition. Subculturing was done to determine the minimum biocidal concentration (MBC). The MBC is the lowest concentration of biocide that results in no growth after subculturing and subsequent incubation.
(§3) All of the microtiter plates including the MIC plates and the MBC plates were incubated for 24 hours at 37°C. Following the 24 hour incubation period, the presence or absence of growth in each well of the plates was determined. Growth in the microtiter plates was determined with a Dynatech MR-5000 microplate reader, available from Dynatech Laboratories, Chantilly, VA, USA, the use of which will be familiar to one having ordinary skill in the art. The presence or absence of growth in each well, along with the concentration of biocide in each well, was then used to determine the synergistic properties of the biocide combinations. The synergistic properties were evaluated by determining the Kull value, or K value. The method for calculating K value is well known to those skilled in the art. In this example, the K value was determined by the following formula: K=([DBDCB] In Combination)/([DBDCB] Alone)+([Triclosan] In Combination)/([Triclosan] Alone) [formula] where "[DBDCB]
A K value of less than 1 indicates synergy between the two biocides, a K value of greater than 1 indicates antagonism between the two biocides, and a K value equal to 1 indicates an additive effect of the two biocides.
Example I was repeated with the following differences. The DBDCB was tested at the following concentrations: 200, 100, 50, 25, 12.5, 6.25 and 3.125, with concentration given in ppm active. […]

[3] = tested on: Candida albicans (ATCC 10231); test: Microtiter test of biocidal efficacy and synergy (Kull K value), Example II, yeast; conditions: ATCC10231, 120 h
Method: as §1, §2
as §3, with “The method for calculating K value is well known to those skilled in the art. In this example, the K value was determined by the following formula: K=([DBDCB] In Combination)/([DBDCB] Alone)+([Triclosan] In Combination)/([Triclosan] Alone) [formula] where "[DBDCB]” left out

Row | Structure (SMILES) | MIC ([1]; ATCC15442, 24 h, read-out: [Triclosan] Alone) [µg/mL] | MIC ([2]; Pseudomonas aeruginosa, ATCC15442, 24 h, read-out: [Triclosan] Alone) [µg/mL] | MIC ([3]; read-out: [Triclosan] Alone) [µg/mL] | MIC ([1]; ATCC15442, concentration of DBDCB which, used alone, resulted in inhibition of microbial growth, ppm active, 24 hours at 37°C, read-out: [DBDCB] Alone) [µg/mL] | MIC ([2]; DBDCB alone, inhibition of microbial growth, ppm active, 35°C for 24 hours) [ppm] | MIC ([2]; Pseudomonas aeruginosa, ATCC15442, 24 h, DBDCB alone, inhibition of microbial growth, ppm active, 35°C for 24 hours, read-out: [DBDCB] Alone) [µg/mL] | MIC ([3]; DBDCB alone, inhibition of microbial growth, ppm active, 30°C for 5 days, read-out: [DBDCB] Alone) [µg/mL]
1 | Oc1cc(Cl)ccc1Oc1ccc(Cl)cc1Cl [Triclosan, 2,4,4'-trichloro-2'-hydroxydiphenyl ether] | 100 | > 100 | 12.5 | – | – | – | –
2 | N#CCCC(Br)(C#N)CBr (stereo not shown) [DBDCB, 1,2-dibromo-2,4-dicyanobutane] | – | – | – | 200 | 200 | 100 | 100
